Measured values: patent US11465972B2, “Inhibitors of oxidized low-density lipoprotein receptor 1 and methods of use thereof” (United States Government as represented by the Department …, priority 2015, dated 2022)
Entries after “also recorded” stand apart in the source; their conditions may differ.

Experiments:
HUVECs = test: Dil-ox-LDL uptake by HUVECs (flow cytometry); assay type: cell-based, human; conditions: for effect on ox-LDL uptake by HUVECs (in words): 200 nM compound; for reduction of the uptake of ox-LDL by HUVECs: 200 nM concentration
Protocol: (§1) FIG. 3A, FIG. 3B, FIG. 3C and FIG. 3D depict the inhibitory effect of the lead compounds on Dil-ox-LDL uptake by HUVECs and CHO cells (measured by flow cytometry) and the effect of the lead compounds on ox-LDL-induced LOX-1 mRNA and protein expression. (FIG. 3A) (Upper Panel) Flow cytometry measurements using HUVECs in the presence of the five lead compounds (Mol-1-Mol-5), each a at 200 nM concentration. (Lower Panel) The percentage of internalized ox-LDL. Graphs show data as mean (±SD); n=4. *P<0.01 or <0.05 vs. control. (FIG. 3B) IC50 value for Mol-5. IC50 value (in nM) is based on inhibition of Dil-ox-LDL uptake in CHO cells overexpressing human LOX-1. Graphs show data as mean (±SD); n=5. *P<0.01 or <0.05 vs. control. (FIG. 3C) Western blotting assay showing LOX-1 protein expression in HUVECs following incubation with 200 nM Mol-1 to Mol-5 for 30 min, and subsequently exposure to 5 μg/mL ox-LDL for 6 hours. (FIG. 3D) The variation of LOX-1 mRNA expression levels at different concentrations of the compounds following exposure of HUVECs to 5 μg/mL ox-LDL. The concentrations are indicated on the X-axis and the LOX-1 mRNA levels are shown on the Y-axis. The plots for all the five molecules are shown in separate colors. Graphs show data as mean (±SD); n=3. *P<0.01 vs. control; #P<0.01 vs. ox-LDL group.
For further characterization, human endothelial cells and fluorescently-labeled Dil-ox-LDL were used for measuring initiation of atherogenic process based on interaction of vascular wall with ox-LDL. Ox-LDL uptake by human umbilical vein endothelial cells (HUVECs) was measured after exposure to 200 nM of each compound using flow cytometry. […] The dose response to modulation of ox-LDL uptake by Mol-5 (0, 20, 200 and 2000 nM) was also measured in CHO cells overexpressing human LOX-1. […] A second dose response curve was conducted to narrow in on the effect of lower concentrations of Mol-5 on ox-LDL uptake (FIG. 6A). Using this information the EC50 was estimated to be […] (FIG. 6B).
The primary HUVECs were purchased from ATCC (Manassas, Va.) and cultured in vascular cell basal medium with supplements (including 10 mL fetal bovine serum, 10 mM L-glutamine, 0.5 tg hydrocortisone hem isuccinate, 25 tg ascorbic acid, 2.5 ng rhVEGF, 2.5 ng rhEGF, 2.5 ng rh FGF, 7.5 ng rhIGF-1 and 0.375 units heparin sulfate). Cells from passages 3 and 4 were used in this study.
HUVECs were plated into 6-well plates and cultured until the cells reached 70% confluence. The cells were exposed to […] Dil-ox-LDL for 30 min after treatment with 200 nM of each of 5 molecules for 30 min, and then washed with PBS for 3 times. After washing, the cells were digested with trypsin and washed with PBS, and suspended in 400 tL PBS, and analyzed with a flow-cytometer (Becton Dickinson, Mountain View, Calif.). For further confirm the inhibitory effects of Mol-5 on Dil-ox-LDL uptake, we also measured Dil-ox-LDL uptake by CHO cells after exposure to […] Mol-5 for 30 min. The CHO cells were stably transfected with human LOX-1 cDNA.

LOX-1 mRNA = test: ox-LDL-induced LOX-1 mRNA expression in HUVECs (q-PCR); assay type: cell-based, human; conditions: for reduction of LOX-1 transcription: 200 nM concentration; for effect on ox-LDL-induced LOX-1 mRNA upregulation / LOX-1 transcription (in words): 5 μg/ml ox-LDL 6 h, 20, 200, 2000 nM
Protocol: as §1
LOX-1 mRNA levels in HUVECs treated with ox-LDL in the absence or presence of the lead molecules at varying concentrations was also measured.
HUVECs were plated into 12-well plates, and treated with 0, 20, 200 and 2000 nM of each of 5 molecules […] for 30 min, and subsequently exposed to […] ox-LDL for 6 h at 37° C. Total RNA was isolated from the treated HUVECs by using a RNeasy Mini-Kit […] according to the manufacturer's instructions. Prior to using, RNA was treated with DNase I and diluted to 100 ng/tL. 100 ng RNA was applied to synthesize cDNA with SuperScript III 1st Strand DNA Synthesis Kit. qPCR was performed using the Applied Biosystems Fast 7500HT real-time PCR system with a 20 tL reaction volume including 10 tL GoTaq qPCR Master Mix (Promega, Madison, Wis.), 100 ng of cDNA and 0.3 tM primers. Data was analyzed by using MX3000P software. Relative mRNA expression was quantified using the comparative threshold cycle (Ct) method. The sequences of primers used for PCR reaction have been described previously^30.

Question: With `CCOCCCNC(=O)CCN1C(=O)COc2ccccc21` [Mol-1] as the compound, how does the “effect on ox-LDL uptake by HUVECs (in words)” value (“effect on ox-LDL uptake” for short) (HUVECs) read?
Answer: Its value is “moderate inhibitory effect”.

Question: What about the “reduction of the uptake of ox-LDL by HUVECs” value (from here on “reduction … by HUVECs”) (HUVECs) of the same compound?
Answer: Its value is “about 35%”.

Question: `Cc1cc(C)n(CC(O)COc2ccccc2)n1` (stereo not drawn) [Mol-5, 1-(3,5-dimethyl-1H-pyrazol-1-yl)-3-phenoxypropan-2-ol] was tested. Which “effect on ox-LDL uptake” value (HUVECs) did it give?
Answer: Its value is “significantly and potently inhibited; also recorded: maximum inhibitory effect”.

Question: What about the “reduction … by HUVECs” value (HUVECs) of the same compound?
Answer: Its value is 80%.

Question: What about the “reduction of LOX-1 transcription” value (LOX-1 mRNA) of the same compound?
Answer: The value was 70%.

Question: What about the “effect on ox-LDL-induced LOX-1 mRNA upregulation / LOX-1 transcription (in words)” value (LOX-1 mRNA) of the same compound?
Answer: The value was “significantly reduced”.

Question: `CCCn1c(CCNC(=O)CCCO)nc2ccccc21` [Mol-4] was tested. Which “effect on ox-LDL uptake” value (HUVECs) did it give?
Answer: Its value is “significantly and potently inhibited”.

Question: And the “reduction … by HUVECs” value (HUVECs)?
Answer: The value was 65%.

Question: And the “reduction of LOX-1 transcription” value (LOX-1 mRNA)?
Answer: Its value is 47%.

Question: What about the “effect on ox-LDL-induced LOX-1 mRNA upregulation / LOX-1 transcription (in words)” value (LOX-1 mRNA) of the same compound?
Answer: Its value is “significantly reduced”.

Question: What does the source list for `CC(C)(C)C(=O)NCCc1nc2ccccc2n1Cc1ccccc1F` [Mol-2]?
Answer: effect on ox-LDL uptake by HUVECs (in words) (HUVECs): no significant effect; effect on ox-LDL-induced LOX-1 mRNA upregulation / LOX-1 transcription (in words) (LOX-1 mRNA): no significant effect
